# How the values were obtained:
# [1] = test system: SJL mice, EAE model (hyperalgesia); assay: Tail immersion test in multiple sclerosis model (experimental autoimmune encephalomyelitis, EAE); format: in vivo; details: for Nociceptive threshold (tail withdrawal latency time): 20 min after administration, 48° C. bath
# From the text: The multiple sclerosis model can be induced in SJL mice, female albino white mice, by the administration of an emulsion made up of a myeline fragment and complete Freund® adjuvant (Aicher et al., Pain (2004), 110: 560-570). Central nervous system inflammation appears at the end of around ten days=experimental autoimmune encephalomyelitis, or EAE.
# Female SJL mice, purchased from Charles River Laboratories, arrive at the age of 5 weeks and are immunized at the age of 6 weeks. Each mouse receives, under mask anesthesia (2% isoflurane), an emulsion of a volume of 200 μL in the left flank, containing 150 μg of PLP139-151 (Proteolipid Protein Myelin, fragment 139-151) in 100 μL of sterile 0.9% NaCl as well as 100 μL of incomplete Freund® adjuvant (Sigma) completed by inactivated Mycobacterium tuberculosis (Difco, USA) at 4 mg/mL=complete adjuvant.
# The symptoms of the disease are reported between D10 and D15, which is reflected by an acute phase, during which scores are high and the animals present a loss of pain sensitivity. This phase precedes a chronic phase which starts around D18 and is characterized by stabilization of the animals general condition and the onset of a significant lowering in the pain perception threshold (hyperalgic state) (Aicher et al., Pain (2004), 110: 560-570).
# Nociceptive thresholds were determined from D12 by the tail immersion test.
# Compound 1 is administered IP (intraperitoneally) at 50 mg/kg and 100 mg/kg in a EtOH/Tween 80/Water carrier (10/10/80) (100 μL per 10 g of mice). The measurement of time of tail withdrawal from a 48° C. bath is done at 20 min after injection (cut-off=10 sec).
# [2] = test system: healthy volunteers; assay: Adverse effects observed during phase 1b clinical study; details: N = 6
# Procedure: The doses indicated in the following table were administered 4 times a day for 5 days, the daily dose varying from 800 to 4000 mg, the total quantity over five days being comprised between 4000 and 20,000 mg.
# [3] = test system: rats, migraine model induced by repeated injection of isosorbide dinitrate (ISDN); assay: Persistent cephalic allodynia induced by recurrent ISDN (chronic migraine), von Frey test, IV treatment; format: in vivo; details: 20 mg/kg intravenously (FIG. 2)
# Procedure: The effects of systemic administration of compound 1 on mechanical cephalic allodynia were tested in rats in a migraine model induced by repeated systemic injection of an NO donor, isosorbide dinitrate (ISDN). Indeed, the powerful vasodilating action of “NO donors” explains their particular propensity to trigger headache in healthy subjects and migraine attacks in migraine patients (Hansen & Olesen, Cephalalgia (2017), 37: 11-19).
# The experiments were conducted on male Sprague-Dawley CD rats (200-250 g, Charles River Laboratories). A minimum delay of 7 days was respected before any experimentation. […]
# (§1) The mechanical sensitivity of the periorbital region was measured by the von Frey test, which consists of applying a range of von Frey filaments in this region, calibrated to exert a constant force (expressed in grams) to determine the force (threshold) that leads to a head withdrawal reaction. […] The rats then received successive intraperitoneal injections of ISDN (10 mg/kg) and cutaneous sensitivity was assessed by means of the von Frey test. […] On the day of the experiment, the forces exerted by the von Frey filaments that led to head withdrawal were measured in each rat under controlled conditions every 30 minutes for 4 hours. […]
# [4] = test system: rats, migraine model induced by single injection of isosorbide dinitrate (ISDN); assay: Mechanical cephalic allodynia induced by single ISDN (acute migraine), von Frey test, oral treatment; format: in vivo; details: 50 mg/kg orally (FIG. 3)
# Procedure: The effects of systemic administration of compound 1 on mechanical cephalic allodynia were tested in rats in a migraine model induced by single systemic injection of an NO donor, isosorbide dinitrate (ISDN). Indeed, the powerful vasodilating action of “NO donors” explains their particular propensity to trigger headache in healthy subjects and migraine attacks in migraine patients (Hansen & Olesen, Cephalalgia (2017), 37: 11-19).
# The experiments were conducted on male Sprague-Dawley CD rats (200-250 g, Charles River Laboratories). A minimum delay of 7 days was respected before any experimentation.
# (§2) The animals were first subjected to habituation sessions designed to reproduce the animals environmental conditions and handling by the experimenter during the final test.
# as §1, with “an” for “successive”, “injection” for “injections”
# [5] = test system: rats, chronic migraine model induced by repeated injection of isosorbide dinitrate (ISDN); assay: Prevention of migraine attacks by oral administration, chronic ISDN model, von Frey test; format: in vivo
# Procedure: The effects of oral administration of compound 1 on mechanical cephalic allodynia were tested in rats in a chronic migraine model induced by repeated systemic injection of an NO donor, isosorbide dinitrate (ISDN). Indeed, the powerful vasodilating action of “NO donors” explains their particular propensity to trigger headache in healthy subjects and migraine attacks in migraine patients (Hansen & Olesen, Cephalalgia (2017), 37: 11-19).
# The experiments were conducted on male rats (10 rats per group of the Sprague-Dawley CD strain (200-250 g, Charles River Laboratories), randomly assigned into each group before experimentation. A minimum delay of 7 days was respected before any experimentation. The experiments were conducted with the experimenter blinded.
# as §2
# The mechanical sensitivity of the periorbital region was measured by the von Frey test, which consists of applying a range of von Frey filaments in this region, calibrated to exert a constant force (expressed in grams) to determine the force (threshold) that leads to a head withdrawal reaction. The rats were habituated to these tests for 5 days preceding the experiment for one hour, so that repeated measurements give reproducible results. […] The rats then received successive intraperitoneal injections of ISDN (10 mg/kg) and cutaneous sensitivity was assessed by means of the von Frey test. […]
# Cutaneous mechanical sensitivity was measured before and on the test day (FIG. 4, single administration of compound 1 or FIG. 6, repeated administration of compound 1) or before and on the test day (Days 1, 2, 3, 4 and 5) (FIG. 5, repeated administration of compound 1) before injection and at 30 min intervals for 4 h in the different groups of rats receiving intraperitoneal ISDN (10 mg/kg, volume of 10 mL/kg). […]
# [6] = 200 mg 4 times a day for 5 days
# [7] = 400 mg 4 times a day for 5 days
# [8] = 600 mg 4 times a day for 5 days
# [9] = 800 mg 4 times a day for 5 days
# [10] = 1000 mg 4 times a day for 5 days
structure (smiles),measurement,setting,value
"CCOC(=O)OC(C)OC(=O)CNC(=O)[C@@H](CSSC[C@@H](N)CCSC)Cc1ccccc1.O=C(O)/C=C/C(=O)O (stereo partly drawn) [Compound 1, (5S,10S)-10-benzyl-16-methyl-11,14,18-trioxo-15,17,19-trioxa-2,7,8-trithia-12-azahenicosan-5-aminium fumarate]",Nociceptive threshold (tail withdrawal latency time),"[1]; 50 mg/kg IP, D21",5.12 (4) seconds
same,Nociceptive threshold (tail withdrawal latency time),"[1]; 50 mg/kg IP, D28",4.14 (5) seconds
same,Nociceptive threshold (tail withdrawal latency time),"[1]; 100 mg/kg IP, D28",5.98 (5) seconds
same,Nociceptive threshold (tail withdrawal latency time),"[1]; 100 mg/kg IP, D35",5.46 (5) seconds
same,Effect on hyperalgesia,[1]; 50 and 100 mg/kg IP (FIG. 1),permits reducing hyperalgesia
same,Subjects with Death,[2]; [6],0
same,Subjects with LAE (limiting adverse event),[2]; [6],0
same,Subjects with SAE (serious adverse event),[2]; [6],0
same,"Subjects with TEAEs, (%)",[2]; [6],16.7%
same,"TEAEs, E = number of adverse reactions",[2]; [6],3
same,Subjects with Death,[2]; [7],0
same,Subjects with LAE (limiting adverse event),[2]; [7],0
same,Subjects with SAE (serious adverse event),[2]; [7],0
same,"Subjects with TEAEs, (%)",[2]; [7],83.3%
same,"TEAEs, E = number of adverse reactions",[2]; [7],12
same,Subjects with Death,[2]; [8],0
same,Subjects with LAE (limiting adverse event),[2]; [8],0
same,Subjects with SAE (serious adverse event),[2]; [8],0
same,"Subjects with TEAEs, (%)",[2]; [8],66.7%
same,"TEAEs, E = number of adverse reactions",[2]; [8],7
same,Subjects with Death,[2]; [9],0
same,Subjects with LAE (limiting adverse event),[2]; [9],0
same,Subjects with SAE (serious adverse event),[2]; [9],0
same,"Subjects with TEAEs, (%)",[2]; [9],100.0%
same,"TEAEs, E = number of adverse reactions",[2]; [9],10
same,Subjects with Death,[2]; [10],0
same,Subjects with LAE (limiting adverse event),[2]; [10],0
same,Subjects with SAE (serious adverse event),[2]; [10],0
same,"Subjects with TEAEs, (%)",[2]; [10],66.7%
same,"TEAEs, E = number of adverse reactions",[2]; [10],15
same,Effect on cephalic cutaneous sensitivity (von Frey),[3],considerably reduces cephalic cutaneous sensitivity
same,Effect on cephalic cutaneous sensitivity (von Frey),[4],considerably reduces cephalic cutaneous sensitivity
same,Effect on cutaneous cephalic sensitivity (von Frey),"[5]; 50 mg/kg orally once daily for 5 days, as a function of time after ISDN, versus carrier (FIG. 6)",significantly reduces cutaneous cephalic sensitivity
same,Effect on cutaneous cephalic sensitivity (von Frey),[5]; 50 mg/kg orally once on the experiment day (FIG. 4),had no effect on cutaneous cephalic sensitivity
same,Effect on cutaneous cephalic sensitivity (von Frey),"[5]; 50 mg/kg orally repeatedly over 5 days, before administration of ISDN, versus carrier (FIG. 5)",significantly reduces cutaneous cephalic sensitivity
